Laboratory results taken from article PMC3953729 (FEBS Open Bio, 2014).

Tests used:
[1] = biological target: cyclohexanone monooxygenase (CHMO) (Acinetobacter johnsonii, UniProt P12015, L323C/A325C); conditions: oxidised enzyme, engineered disulfide formed
[2] = biological target: cyclohexanone monooxygenase (CHMO) (Acinetobacter johnsonii, UniProt P12015); test: FAD absorbance change on titration; assay type: binding

Question: What does the source list for NC(=O)c1ccc[n+]([C@@H]2O[C@H](COP(=O)(O)OP(=O)(O)OC[C@H]3O[C@@H](n4cnc5c(N)ncnc54)[C@H](OP(=O)(O)O)[C@@H]3O)[C@@H](O)[C@H]2O)c1 [NADP^+]?
Answer: Kd [1]: 15 µM; Kd [2]: 28 µM
